Results: US5510353A, “Certain aminoguanidine compounds, pharmaceutical compositions containing them and their use in treating gastrointestinal motility disorders and disorders associated with cephalic pain” (Sandoz Ltd., priority 1991, dated 1996)

What was measured:
[1] = system: small intestine of Beagle dogs; assay: Myoelectric activity of the small intestine in Beagle dogs (implanted electrodes); type: in vivo; settings: Canis lupus familiaris, sc, read-out: threshold dose for stimulating myoelectric activity
Method: Monopolar electrodes are implanted on the serosal side of the gut wall along the small intestine of Beagle dogs. From these electrodes, signals are fed into a preamplifier and filtered for the registration of low and high frequency potentials, in order to separate slow waves from spikes. The number of spike bursts occuring in 2 min. periods are determined. From this the following data are extracted: duration of phase I--III, interval between 2 consecutive phase III blocks, and propagation velocity. One or two cycles are recorded prior to drug administration which is done subcutaneously 10-15 min after a Phase III has passed the most distal electrodes. Control experiments are performed routinely by means of solvent administration. In fed dogs, the number of spikes per 30 min. is determined additionally. In this test the compounds of the invention stimulate myoelectric activity at dosages of the order of from about 0.001 to 10 mg/kg s.c.

[2] = system: isolated guinea-pig ileum; assay: Peristaltic reflex in the isolated guinea-pig ileum; type: cell-based; settings: Cavia porcellus, 0.25 h, 15 min contact, read-out: pEC50 value, stimulatory effect on the peristaltic activity (converted)
Method: Furthermore, the stimulatory effect on gastrointestinal motility of compounds of the invention is also indicated e.g. by their effects on the peristaltic reflex in the isolated guinea-pig ileum.
Male guinea-pigs, 200-400 g are stunned and bled. Segments of terminal ileum, 4-5 cm long, are removed and suspended as described by Trendelenburg in Arch. Exp. Path. Pharmakol., 81, 55-129 (1917), in a 20 ml organ bath under an initial load of 1 g. The tissue is bathed with a modified Krebs solution (NaCl 118.6; CaCl2 2.7; KCl 4.7; KH2 PO4 1.2; MgSO4 0.1; NaHCO3 25.0; and glucose 5.6 mM), maintained at 37° C. and bubbled with 5% CO2 in oxygen. Peristalsis is elicited for 30 s by increasing the intraluminal pressure from zero by 1 to 4 cm H2 O. Measurements are made of longitudinal muscle responses by using an isotonic force-displacement transducer and of circular muscle activity by employing a pressure transducer. The area under the curve (AUG) of peristaltic contractions is determined and concentration response curves are established by plotting the AUC representing the circular and longitudinal muscle activity. Each preparation is used as its own control, taking the peristaltic activity before the administration of the compounds to be tested as 100%. Compounds to be tested are added to the serosal side and are left in contact with the tissue for 15 min. In this test compounds of the invention have a stimulatory effect on the peristaltic activity at concentrations of the order of from about 10^-10 M to 10^-7 M.

[3] = biological target: T1, 5-HT4 receptors (Cavia porcellus, UniProt O70528); assay: Antagonism of 5-HT-induced contraction, longitudinal muscle strip of guinea pig ileum (5-HT4); type: cell-based; settings: methysergide 0.1 μM present, read-out: pA2 value (converted)
T1 construct: The isolated longitudinal muscle of the guinea pig ileum with its adhering myenteric plexus; from tissue; host or cells: guinea pig ileum longitudinal muscle strip with adhering myenteric plexus
T1 sequence (O70528 whole entry): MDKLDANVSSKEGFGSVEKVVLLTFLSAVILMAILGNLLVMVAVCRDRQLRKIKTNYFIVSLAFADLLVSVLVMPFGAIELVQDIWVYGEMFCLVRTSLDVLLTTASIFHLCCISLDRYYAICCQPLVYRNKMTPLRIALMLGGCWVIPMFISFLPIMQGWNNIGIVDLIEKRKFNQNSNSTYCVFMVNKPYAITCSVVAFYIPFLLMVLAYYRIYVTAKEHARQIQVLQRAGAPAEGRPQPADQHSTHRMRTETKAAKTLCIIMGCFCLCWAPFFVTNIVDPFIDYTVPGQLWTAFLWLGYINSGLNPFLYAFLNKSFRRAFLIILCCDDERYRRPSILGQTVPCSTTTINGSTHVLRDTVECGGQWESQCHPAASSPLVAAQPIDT
Excerpt: The isolated longitudinal muscle of the guinea pig ileum with its adhering myenteric plexus is a well established model which permits investigations of the mechanism of action of various neurotransmitters.
Male guinea pigs (200-400 g) are killed by a blow on the head and exsanguinated. A length of small intestine is removed about 2 cm from the ileo-caecal valve. The ileum is stretched over a glass rod and the mesentery is carefully removed. By strocking tangentially away from the mesenteric attachment with a wad of cotton wool, the longitudinal muscle layer is separated and stripped from the underlying circular muscle. Longitudinal muscle strips, 3-4cm length, are mounted in a 10 ml organ bath containing Tyrode solution at 37° C. and bubbled with a 5% carbon dioxide in oxygen. The Tyrode solution is of the following composition (mmol/1): NaCl 137.0; CaCl2 1.8; KCl 2.7; MgCl2 1.05; NaHCO3 11.9; NaHPO4 0.4; glucose 5.6; and methysergide 0.1 μM. The strips are maintained under a resting tension of 500 mg. Contractions are recorded with an isotonic pendulum lever. After equilibration for 30 min a set concentration of carbachol is applied in 10 min intervals until a consistent reaction is achieved.
Non-cumulative concentration-response curves for 5-HT are established by adding increasing concentrations of the agonist to the organ bath at intervals of at least 15 min. […] Each concentration is left in contact with the tissue for 1 min. Each strip is only used to record two concentration-response curves; the first for 5-HT alone and the second for 5-HT in the presence of a set concentration of antagonist, each strip thus serving as its own control. Antagonists are allowed to preequilibrate for at least 10 min prior to addition of 5-HT. The contractions expressed as percentage of the maximal response to 5-HT obtained from several preparations are plotted as mean values in order to obtain log-concentration-response curves. Inhibition constants are expressed in the form of pA2 values which are graphically determined according to conventional methods (Arunlakshana et al, 1959, McKay 1978). […]

[4] = system: 5-HT1D receptor; assay: Contraction of pig anterior cerebral artery segments (5-HT1D mediated); type: cell-based; settings: vascular contraction, ketanserin 10^-7 M present
Method: Anterior cerebral arteries are excised from pig brains obtained from the local slaughterhouse. Circular segments of 3-4 mm length are mounted between two L-shaped metal prongs and placed in temperature-controlled (37° C.) organ baths filled with Krebs solution that is continuously gassed with 5% CO2 in oxygen. Agonist-induced vascular contractions are measured isometrically. In order to measure only 5-HT1D receptor mediated effects, ketanserin (10^-7 M), which prevents contractions via 5-HT2 receptors, is added to the bath solution. Compounds of the invention induce vascular contractions at a concentration of from 10^-10 to 10^-5 M, particularly 10^-9 to 10^-7 M. In this test, it has been determined that compound of Example 63 has a pD2 value of 9.0.

[5] = biological target: 5HT-1D receptors; assay: Binding affinity to 5HT-1D receptors (Waeber et al.); settings: 5HT-1D receptor binding
Excerpt: Compounds of the invention also have an agonist effect on 5HT-1D receptors. Their binding affinity to 5HT-1D receptors has been determined e.g. according to the method disclosed by C. Waeber et al., Naunyn-Schmiedeberg,s Arch. Pharmacol., 337, 595-601 (1988).

EC50 [2]	Kb [3]	SMILES	other results
> 100 nM	–	COc1cc(N)c(Cl)cc1C(=O)NC1CCN(CCCOc2ccc(F)cc2)CC1OC (stereo not shown) [Cisapride, reference compound]	minimal effective dose [1]: 0.3 mg/kg
1 nM	–	CCCCCNC(=N)NN=Cc1c[nH]c2ccc(OC)cc12 [Example 13]	minimal effective dose [1]: 0.03 mg/kg
–	5.01 nM	CCCCCN(C)C(=N)NN=Cc1c[nH]c2c(C)cc(O)cc12 [Example 97]	–
–	10 nM	CCCCCNC(=N)NN=Cc1cn(CC)c2ccc(O)cc12 [Example 90]	–
–	–	CCCCCNC(=N)NN=Cc1c[nH]c2ccc(C(N)=O)cc12 [Example 63]	pD2 value [4]: 9.0; pKD value [5]: 8.55
2000 nM	–	CCN(CC)CCNC(=O)c1cc(Cl)c(N)cc1OC [metoclopramide]	–

SMILES	EC50 [2]	Kb [3]	other results
CCCCCNC(=N)NN=Cc1c[nH]c2c(C)cc(O)cc12 [Example 89]	–	7.94 nM	–
